Source: US4409210A, “Antibiotic compound” (priority 1982, dated 1983)
*1 amine or outer side, *2 acyl side, *3 side chain or, on linkers, in order; H or OH if unused. Where a SMILES comes first, the peptide text is derived from it. Bridges are numbered along the chain shown (N, C = ends). [ ]: non-standard residue; d: D form. ξ: configuration not given here. X2 = CCCCCCCCCCCC(CC(=O)[*:1])O[*:2]; ξAsp(3ξ-OH) = NC(C(=O)O)C(O)C(=O)O; X1 = O=C(C1C(O)CCN1[*:1])[*:2]

Tested on: Clindamycin-erythromycin-resistant strains of C. difficile and C. perfringens
Format: cell-based

## CCCCCCCCCCCC1CC(=O)N2CCCC2C(=O)NC(CO)C(=O)N2CCCC2C(=O)NC(CCCNC(=N)N)C(=O)NC(C(O)C(=O)O)C(=O)NC(CO)C(=O)N2CCC(O)C2C(=O)NC(C(O)C(=O)O)C(=O)O1 (stereo not shown) [Bu-2517] (PSPR[ξAsp(3ξ-OH)]S[X1][ξAsp(3ξ-OH)]; linker N-C via X2; configuration not given here)
  concentration to which strains were susceptible: 1.6 to 3.1 µg/mL
